Assay results published in patent US8933035B2, “Transglutaminase-activating peptide and cosmetic or pharmaceutical composition containing same” (ISP Investments Inc., priority 2009, dated 2015).

Key:
TG1 [1] = assay: immunolabelling of TG1 in ex vivo human skin biopsies; assay type: cell-based; conditions: cultivated ex vivo skin biopsies, 0.5 ppm topically, 24 hours
Description: (§1) Biopsies of human skin were placed in culture at the air/liquid interface. A 1% solution of a mother solution containing 50 ppm of peptide SEQ ID NO: 5 was applied topically over 24 hours. For the labellings of TG1 and TG2, the skin biopsies were then enclosed in resin and frozen in nitrogen. Sections of approximately 6 μm were then made by cryostat. Immunolabelling was carried out by means of a specific antibody; anti-TG1 (Clinisciences BT-621, mouse monoclonal) or anti-TG2 (ABCAM® ab2972 antibody, rabbit polyclonal), then by means of a suitable secondary antibody coupled to a fluorescent marker. The skin sections were then examined under epifluorescence microscope (ECLIPSE® E 80i microscope by Nikon Corporation).

biopsies of human skin [2] = assay: epidermal differentiation, morphology of skin sections ex vivo; assay type: cell-based; conditions: 0.5 ppm topically, 24 hours
Description: (§2) Biopsies of human skin were placed in culture at the air/liquid interface. A 1% solution of a mother solution containing 50 ppm of peptide SEQ ID NO: 5 was applied topically over 24 hours. The biopsies were then enclosed in paraffin and histological sections 3 μm thick were made. The slides were deparaffined, hydrated, then immunolabelled by an antibody directed against TG1 (Clinisciences BT-621, mouse monoclonal) or cyto-pankeratins (NOVOCASTRA® NCL-CK10 antibody, mouse monoclonal), or loricrin (ABCAM® ab24722 antibody, rabbit polyclonal), or involucrin (NOVOCASTRA® NCL-INV antibody, clone SY5, mouse monoclonal) or filaggrin (Tebu Santa Cruz sc-58761, mouse monoclonal). For easier observation, the rings of the cells can be counter-stained by DAPI (4′,6′ di amidine-2-phenyl indole, a blue fluorescent molecule capable of binding strongly to DNA). A suitable secondary antibody coupled to a fluorescent marker was then used. After mounting in a medium ad hoc, the slides were observed under epifluorescence microscope (ECLIPSE® E 80i microscope by Nikon Corporation).

loricrin [3] = assay: immunolabelling of epidermal differentiation marker loricrin; assay type: cell-based, human; conditions: 0.5 ppm, 24 hours; cultured NHKs and skin biopsies
From the text: (§3) The objective of this study was to determine the influence of peptide SEQ ID NO: 5 on epidermal differentiation. To this end, the expression of the main markers of epidermal differentiation, expressed specifically in the keratinocytes in the suprabasal layers, were studied. The tested markers are transglutaminase 1, pankeratins, filaggrin, involucrin and loricrin. On the other hand, filaggrin, involucrin and loricrin are precursors of the cornified envelope and of transglutaminase substrates.
(§4) Cultured NHKs were treated with a 1% solution of a mother solution containing 50 ppm of peptide SEQ ID NO: 5 for 24 hours. The cells were then washed and fixed with 3.7% paraformaldehyde for 10 minutes. After unmasking of specific sites, the cells were incubated in the presence of a specific antibody directed against TG1 (Clinisciences BT-621, mouse monoclonal), or against loricrin (ABCAM® ab24722 antibody, rabbit polyclonal), or involucrin (NOVOCASTRA® NCL-INV antibody, mouse monoclonal, clone SY5), then incubated in the presence of a suitable secondary antibody coupled to a fluorescent marker. For easier observation, the rings of the cells can be counter-stained by DAPI (4′,6′ di amidine-2-phenyl indole), a blue fluorescent molecule capable of binding strongly to DNA). […]

filaggrin = assay: immunolabelling of epidermal differentiation marker filaggrin; assay type: cell-based, human; conditions: 0.5 ppm, 24 hours; labelled in skin biopsies
From the text: as §3
as §2, with “A suitable secondary antibody coupled to a fluorescent marker was then used. After mounting in a medium ad hoc, the slides were observed under epifluorescence microscope (ECLIPSE® E 80i microscope by Nikon Corporation).” left out

pankeratins = assay: immunolabelling of epidermal differentiation marker pankeratins; assay type: cell-based, human; conditions: 0.5 ppm, 24 hours; labelled in skin biopsies
From the text: as §3
as §2, with “A suitable secondary antibody coupled to a fluorescent marker was then used. After mounting in a medium ad hoc, the slides were observed under epifluorescence microscope (ECLIPSE® E 80i microscope by Nikon Corporation).” left out

loricrin [4] = assay: immunoblot of loricrin in cultured NHKs; assay type: cell-based, human; conditions: 1% of 50 ppm mother solution, 24 hours
Description: (§5) Cultured NHKs were treated with a 1% solution of a mother solution containing 50 ppm of peptide SEQ ID NO: 5 for 24 hours. The cells were then rinsed and detached from the support by scraping in a RIPA buffer in the presence of a cocktail of protease inhibitors (Thermo Scientific, Rockford, USA). The lysed cells were centrifuged at 4° C. at 10,000 rpm for 20 minutes and the supernatants were collected. The samples were then standardised by assaying of the proteins by BCA kit (Pierce, France). The samples were mixed, then subjected to electrophoresis on NUPAGE® 3-8% tris-acetate gel in a NuPAGE NUPAGE® tris-acetate migration buffer, then blotted on a membrane of nitrocellulose by means of a blotting device (Invitrogen, Paisley, UK). The membranes were saturated in 5 TBS milk for 2 hours at ambient temperature, then incubated at 4° C. overnight with a primary antibody directed against TG1 (Clinisciences BT-621, monoclonal mouse) or against involucrin (NOVOCASTRA®NCL-INV antibody, clone SY5, mouse monoclonal) or against loricrin (ABCAM® ab24722 antibody, rabbit polyclonal). After washing by 0.05% TBS-Tween buffer, the membrane was incubated with a suitable secondary antibody coupled to peroxidase. The blots were then developed by means of a chemiluminescent substrate (SuperSignal West Dura Extended Duration Substrate, Pierce, Brebiere, France).

involucrin [5] = assay: immunoblot of involucrin in cultured NHKs; assay type: cell-based, human; conditions: 1% of 50 ppm mother solution, 24 hours
Description: as §5

TG1 [6] = assay: immunofluorescence labelling of TG1 in cultured normal human keratinocytes; assay type: cell-based; conditions: 0.5 ppm, 24 hours
Description: (§6) The objective of this study was to determine the influence of peptide SEQ ID NO: 5 on the expression of the different transglutaminases expressed in the human skin. To this end, a culture of normal human keratinocytes (NHKs) and a skin biopsy were subjected to specific labellings by immunofluorescence. Cultures of normal human fibroblasts were also labelled by immunofluorescence, specifically for TG2, which is expressed in these types of cell. Cultured NHKs were treated with a 1% solution of a mother solution containing 50 ppm of peptide SEQ ID NO: 5 for 24 hours. For immunolabelling by the anti-TG1 antibody, the cells were washed and fixed with 3.7% paraformaldehyde for 10 minutes. The cells were then incubated in the presence of a specific anti-TG1 antibody (Clinisciences BT-621, mouse monoclonal), then in the presence of a suitable secondary antibody coupled to a fluorescent marker. For the other immunolabellings, the cells were washed and fixed with cold methanol for 1 minute. The cells were then incubated in the presence of a specific antibody; anti-TG2 (ABCAM® ab2972 antibody, rabbit polyclonal), anti-TG3 (ABCAM® ab53236 antibody, mouse monoclonal) or anti-TG5 (ABCAM® ab26992 antibody, rabbit polyclonal). After mounting in a medium ad hoc, the slides were observed under epifluorescence microscope (ECLIPSE® E 80i microscope by Nikon Corporation).

TG2 [7] = assay: immunofluorescence labelling of TG2 in cultured normal human fibroblasts; assay type: cell-based; conditions: 0.5 ppm, 24 hours
Description: as §6, with “Corporation). […]” for “Corporation).”

involucrin [8] = assay: immunolabelling of epidermal differentiation marker involucrin; assay type: cell-based, human; conditions: 0.5 ppm, 24 hours; cultured NHKs and skin biopsies
From the text: as §3, §4

TG1 [9] = assay: immunolabelling of epidermal differentiation marker TG1; assay type: cell-based, human; conditions: 0.5 ppm, 24 hours; cultured NHKs and skin biopsies
From the text: as §3, §4

TG2 [10] = assay: immunolabelling of TG2 in ex vivo human skin biopsies; assay type: cell-based; conditions: cultivated ex vivo skin biopsies, 0.5 ppm topically, 24 hours
Description: as §1

transglutaminases = assay: total enzyme activity of transglutaminases in normal human keratinocytes (fluorescein-labelled cadaverine substrate); assay type: cell-based; conditions: NHKs, 0.5 ppm
Description: The objective of this study was to determine the influence of peptide SEQ ID NO: 5 on the total activity of transglutaminases in normal human keratinocytes (NHKs). To this end, the total enzyme activity of transglutaminases was assayed by spectrophotometry by means of an amino acid donor substrate, the amino acids being labelled with fluorescein.
NHKs were placed in black 96-well plates. After four days of culture, the NHKs were treated with a 1% solution of a mother solution containing 50 ppm of peptide SEQ ID NO: 5 for 24 or 48 hours (the active ingredient was added every 24 hours). A positive control was created by treating the cells with EGCG (epigallocatechin gallate, the main polyphenol ingredient in green tea) at a concentration of 20 μg/ml. The substrate used was cadaverine labelled with fluorescein (Invitrogen A10466) diluted to 100 μM in the culture medium. […] After two rinses in ethanol, then three rinses in the HBSS buffer, 100 μl of PBS were added to each well and a reading was taken by spectrophotometer at excitation wavelengths of 485 nm and emission wavelengths of 530 nm. Under these conditions, the transglutaminase activity was proportional to the amount of fluorescence emitted (expressed in fluorescence units), based on the total amount of proteins present in each well, previously assayed by the BCA technique.

TG3 [11] = assay: immunolabelling of TG3 in ex vivo human skin biopsies; assay type: cell-based; conditions: cultivated ex vivo skin biopsies, 0.5 ppm topically, 24 hours
Description: Biopsies of human skin were placed in culture at the air/liquid interface. A 1% solution of a mother solution containing 50 ppm of peptide SEQ ID NO: 5 was applied topically over 24 hours.
For the labellings of TG3, the skin biopsies were enclosed in paraffin and histological sections 3 μm thick were made. The slides were deparaffined, hydrated, then immunolabelled by an antibody directed against TG3 (ABCAM® ab53236 antibody, mouse monoclonal), then by a suitable secondary antibody coupled to a fluorescent marker. The skin sections were then examined under epifluorescence microscope (ECLIPSE® E 80i microscope by Nikon Corporation).

biopsies of human skin [12] = assay: study of epidermal regeneration, histology of skin biopsies; assay type: cell-based; conditions: 1% of 50 ppm mother solution topically, 24 hours
Description: Biopsies of human skin were placed in culture at the air/liquid interface. A 1% solution of a mother solution containing 50 ppm of peptide SEQ ID NO: 5 was applied topically, then the samples were incubated for 24 hours. The skin biopsies were then enclosed in paraffin and histological sections 3 μm thick were made. The sections were deposited on Superfrost Plus slides (Menzel Glaser, Thermo Scientific), then deparaffined in xylene and rehydrated in a series of alcohol-water solutions. The sections were then stained by 50% haematoxylin for 3 minutes, rinsed, then stained with 60% eosin for 3 minutes and rinsed in water. The sections were then dehydrated, mounted in Eukitt and examined by optical microscopy.

TG3 [13] = assay: immunofluorescence labelling of TG3 in cultured normal human keratinocytes; assay type: cell-based; conditions: 0.5 ppm, 24 hours
Description: as §6

TG1 [14] = assay: immunoblot of TG1 in cultured NHKs; assay type: cell-based, human; conditions: 1% of 50 ppm mother solution, 24 hours
Description: as §5

TG5 = assay: immunofluorescence labelling of TG5 in cultured normal human keratinocytes; assay type: cell-based; conditions: 0.5 ppm, 24 hours
Description: as §6

TG2 [15] = assay: immunofluorescence labelling of TG2 in cultured normal human keratinocytes; assay type: cell-based; conditions: 0.5 ppm, 24 hours
Description: as §6

human fibroblasts = assay: Ibidi in vitro healing model of fibroblast regeneration; assay type: cell-based; conditions: 0.5 ppm and 1.5 ppm
Description: The Ibidi in vitro healing model was used (Biovalley, Marne la Vallée, France). Human fibroblasts were sown in two separate compartments of an Ibidi insert, which was then placed in a culture dish. On confluence, the insert was removed, thus creating an acellular zone measuring 400 μm wide between the two cellular lawns. The peptide diluted to 1% and 3% from a mother solution containing 50 ppm of peptide SEQ ID NO: 5 was then added to the culture medium, and the treatment was carried out for 48 hours with renewal of the active ingredient every 24 hours. Inspection by phase contrast microscopy (Olympus CK40 microscope, ×5, connected to an Olympus E-510 camera) was carried out at different times (0 to 48 hours) during the migration process.

- increase in total transglutaminase enzyme activity compared to the untreated control (transglutaminases; after 24 hours): 30%
- increase in total transglutaminase enzyme activity compared to the untreated control (transglutaminases; after 48 hours): 47.7%
Substance: SEQ ID NO: 5 (RRGQ)
- expression of TG1 (immunofluorescence) (TG1 [1]): stimulates the expression
- epidermal differentiation, cornified layer morphology (biopsies of human skin [2]): thicker cornified layer
- expression of loricrin (immunofluorescence) (loricrin [3]): stimulates the expression
- expression of filaggrin (immunofluorescence) (filaggrin): stimulates the expression
- expression of pankeratins (immunofluorescence) (pankeratins): stimulates the expression
- increase in expression of loricrin (quantitative analysis of immunoblots) (loricrin [4]): 16%
- increase in expression of involucrin (quantitative analysis of immunoblots) (involucrin [5]): 30%
- expression of TG1 (immunofluorescence) (TG1 [6]): stimulates the expression
- expression of TG2 (immunofluorescence) (TG2 [7]): stimulates the expression
- expression of involucrin (immunofluorescence) (involucrin [8]): stimulates the expression
- expression of TG1 as differentiation marker (immunofluorescence) (TG1 [9]): stimulates the expression
- expression of TG2 (immunofluorescence) (TG2 [10]): stimulates the expression
- expression of TG3 (immunofluorescence) (TG3 [11]): stimulates the expression
- cells of the basal layer in histological sections of epidermis (biopsies of human skin [12]): Greater density of the cells of the basal layer
- cornified layer in histological sections of epidermis (biopsies of human skin [12]): neo-synthesis of the cornified layer, which appears thicker and better hydrated
- expression of TG3 (immunofluorescence) (TG3 [13]): stimulates the expression
- increase in expression of TG1 (quantitative analysis of immunoblots) (TG1 [14]): 20%
- expression of TG5 (immunofluorescence) (TG5): stimulates the expression
- expression of TG2 (immunofluorescence) (TG2 [15]): stimulates the expression
- dose dependence of the effect on fibroblast invasion (human fibroblasts): dose-dependent
- invasion of the acellular zone with fibroblasts compared to control (human fibroblasts; 0 to 48 hours): quicker
